Experimental data published in publication PMC6409085, “Three odorant-binding proteins are involved in the behavioral response of Sogatella furcifera to rice plant volatiles” (PeerJ, 2019).
pIC50: −log10 of the molar value. Values joined by “and” are separate entries in the source; they are usually repeats but may differ in a detail not shown here. Identical values can stand only once.

Key:
Test in all cases: biochemical
Assay type in all cases: binding
SfurOBP1 = SfurOBP1 (Sogatella furcifera, UniProt V5T8N5); settings: for Fluorescence competitive binding assay, fluorescence intensity: OBP1, three replicate columns
Method in brief: (§1)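 1-NPN displacement assay with odorant competitor at 2–20 µM; protein and probe both 2.0 µM at pH 7.4. Ki is calculated from IC50 using the protein/1-NPN dissociation constant.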

SfurOBP2 = SfurOBP2 (Sogatella furcifera, UniProt V5T759)
Method in brief: as §1

SfurOBP3 = SfurOBP3 (Sogatella furcifera, UniProt V5T818); settings: for Fluorescence competitive binding assay, fluorescence intensity: OBP3, three replicate columns
Method in brief: as §1

SfurOBP11 = SfurOBP11 (Sogatella furcifera, UniProt V5T6E3)
Method in brief: as §1

Sequence of SfurOBP3 (V5T818 entry or part of it): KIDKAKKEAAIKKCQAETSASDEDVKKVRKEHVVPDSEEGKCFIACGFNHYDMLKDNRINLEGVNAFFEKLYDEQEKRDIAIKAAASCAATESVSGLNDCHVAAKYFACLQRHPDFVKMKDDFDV
Sequence of SfurOBP11 (V5T6E3 entry or part of it): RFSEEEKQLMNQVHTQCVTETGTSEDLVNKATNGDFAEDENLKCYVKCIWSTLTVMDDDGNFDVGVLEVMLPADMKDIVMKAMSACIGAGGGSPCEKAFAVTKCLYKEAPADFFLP
Sequence of SfurOBP1 (V5T8N5 entry or part of it): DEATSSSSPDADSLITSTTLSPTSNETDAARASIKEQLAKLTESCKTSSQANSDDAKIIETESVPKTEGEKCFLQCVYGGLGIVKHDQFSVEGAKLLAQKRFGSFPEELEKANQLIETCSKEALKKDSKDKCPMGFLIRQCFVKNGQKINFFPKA
Sequence of SfurOBP2 (V5T759 entry or part of it): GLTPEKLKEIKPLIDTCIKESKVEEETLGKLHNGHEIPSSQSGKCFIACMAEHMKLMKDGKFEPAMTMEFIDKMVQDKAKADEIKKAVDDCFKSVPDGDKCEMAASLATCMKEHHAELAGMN

Structure (SMILES): C/C(=C\CO)CCC[C@H](C)CCC[C@H](C)CCCC(C)C [plant alcohol]
- Fluorescence competitive binding assay, fluorescence intensity (SfurOBP1; ligand concentration 2 (μM)): 7330 and 7109 and 7550
- Fluorescence competitive binding assay, fluorescence intensity (SfurOBP1; ligand concentration 4 (μM)): 7885 and 9070 and 8350
- Fluorescence competitive binding assay, fluorescence intensity (SfurOBP1; ligand concentration 6 (μM)): 9355 and 9996 and 9183
- Fluorescence competitive binding assay, fluorescence intensity (SfurOBP1; ligand concentration 8 (μM)): 11640 and 10265 and 9349
- Fluorescence competitive binding assay, fluorescence intensity (SfurOBP1; ligand concentration 10 (μM)): 10389 and 10452 and 10917
- Fluorescence competitive binding assay, fluorescence intensity (SfurOBP1; ligand concentration 12 (μM)): 10679 and 10989 and 10151
- Fluorescence competitive binding assay, fluorescence intensity (SfurOBP1; ligand concentration 14 (μM)): 12105 and 10979 and 11552
- Fluorescence competitive binding assay, fluorescence intensity (SfurOBP1; ligand concentration 16 (μM)): 10141 and 15672 and 8010
- Fluorescence competitive binding assay, fluorescence intensity (SfurOBP1; ligand concentration 18 (μM)): 13868 and 12649 and 12554
- Fluorescence competitive binding assay, fluorescence intensity (SfurOBP1; ligand concentration 20 (μM)): 12803 and 13119 and 10975
- pIC50 (SfurOBP1; SfurOBP1, protein and 1-NPN both 2.0 µM, competitor 2-20 µM, read-out: IC50): < 4.70
- pIC50 (SfurOBP2; SfurOBP2, protein and 1-NPN both 2.0 µM, competitor 2-20 µM, read-out: IC50): < 4.70
- Fluorescence competitive binding assay, OBP2 (raw fluorescence reading) (SfurOBP2; ligand concentration 2 (unit not given), replicate column 1 of 3): 15935
- Fluorescence competitive binding assay, OBP2 (raw fluorescence reading) (SfurOBP2; ligand concentration 2 (unit not given), replicate column 2 of 3): 15877
- Fluorescence competitive binding assay, OBP2 (raw fluorescence reading) (SfurOBP2; ligand concentration 2 (unit not given), replicate column 3 of 3): 16010
- Fluorescence competitive binding assay, OBP2 (raw fluorescence reading) (SfurOBP2; ligand concentration 4 (unit not given), replicate column 1 of 3): 16483
- Fluorescence competitive binding assay, OBP2 (raw fluorescence reading) (SfurOBP2; ligand concentration 4 (unit not given), replicate column 2 of 3): 17483
- Fluorescence competitive binding assay, OBP2 (raw fluorescence reading) (SfurOBP2; ligand concentration 4 (unit not given), replicate column 3 of 3): 15472
- Fluorescence competitive binding assay, OBP2 (raw fluorescence reading) (SfurOBP2; ligand concentration 6 (unit not given), replicate column 1 of 3): 19539
- Fluorescence competitive binding assay, OBP2 (raw fluorescence reading) (SfurOBP2; ligand concentration 6 (unit not given), replicate column 2 of 3): 15243
- Fluorescence competitive binding assay, OBP2 (raw fluorescence reading) (SfurOBP2; ligand concentration 6 (unit not given), replicate column 3 of 3): 16407
- Fluorescence competitive binding assay, OBP2 (raw fluorescence reading) (SfurOBP2; ligand concentration 8 (unit not given), replicate column 1 of 3): 19867
- Fluorescence competitive binding assay, OBP2 (raw fluorescence reading) (SfurOBP2; ligand concentration 8 (unit not given), replicate column 2 of 3): 20728
- Fluorescence competitive binding assay, OBP2 (raw fluorescence reading) (SfurOBP2; ligand concentration 8 (unit not given), replicate column 3 of 3): 17103
- Fluorescence competitive binding assay, OBP2 (raw fluorescence reading) (SfurOBP2; ligand concentration 10 (unit not given), replicate column 1 of 3): 20161
- Fluorescence competitive binding assay, OBP2 (raw fluorescence reading) (SfurOBP2; ligand concentration 10 (unit not given), replicate column 2 of 3): 19779
- Fluorescence competitive binding assay, OBP2 (raw fluorescence reading) (SfurOBP2; ligand concentration 10 (unit not given), replicate column 3 of 3): 18765
- Fluorescence competitive binding assay, OBP2 (raw fluorescence reading) (SfurOBP2; ligand concentration 12 (unit not given), replicate column 1 of 3): 19327
- Fluorescence competitive binding assay, OBP2 (raw fluorescence reading) (SfurOBP2; ligand concentration 12 (unit not given), replicate column 2 of 3): 19917
- Fluorescence competitive binding assay, OBP2 (raw fluorescence reading) (SfurOBP2; ligand concentration 12 (unit not given), replicate column 3 of 3): 19157
- Fluorescence competitive binding assay, OBP2 (raw fluorescence reading) (SfurOBP2; ligand concentration 14 (unit not given), replicate column 1 of 3): 20768
- Fluorescence competitive binding assay, OBP2 (raw fluorescence reading) (SfurOBP2; ligand concentration 14 (unit not given), replicate column 2 of 3): 19570
- Fluorescence competitive binding assay, OBP2 (raw fluorescence reading) (SfurOBP2; ligand concentration 14 (unit not given), replicate column 3 of 3): 20399
- Fluorescence competitive binding assay, OBP2 (raw fluorescence reading) (SfurOBP2; ligand concentration 16 (unit not given), replicate column 1 of 3): 18977
- Fluorescence competitive binding assay, OBP2 (raw fluorescence reading) (SfurOBP2; ligand concentration 16 (unit not given), replicate column 2 of 3): 19385
- Fluorescence competitive binding assay, OBP2 (raw fluorescence reading) (SfurOBP2; ligand concentration 16 (unit not given), replicate column 3 of 3): 18242
- Fluorescence competitive binding assay, OBP2 (raw fluorescence reading) (SfurOBP2; ligand concentration 18 (unit not given), replicate column 1 of 3): 20374
- Fluorescence competitive binding assay, OBP2 (raw fluorescence reading) (SfurOBP2; ligand concentration 18 (unit not given), replicate column 2 of 3): 20001
- Fluorescence competitive binding assay, OBP2 (raw fluorescence reading) (SfurOBP2; ligand concentration 18 (unit not given), replicate column 3 of 3): 19071
- Fluorescence competitive binding assay, OBP2 (raw fluorescence reading) (SfurOBP2; ligand concentration 20 (unit not given), replicate column 1 of 3): 20399
- Fluorescence competitive binding assay, OBP2 (raw fluorescence reading) (SfurOBP2; ligand concentration 20 (unit not given), replicate column 2 of 3): 20700
- Fluorescence competitive binding assay, OBP2 (raw fluorescence reading) (SfurOBP2; ligand concentration 20 (unit not given), replicate column 3 of 3): 18461
- Fluorescence competitive binding assay, fluorescence intensity (SfurOBP3; ligand concentration 2): 81785 and 76872 and 83999
- Fluorescence competitive binding assay, fluorescence intensity (SfurOBP3; ligand concentration 4): 101881 and 87909 and 87470
- Fluorescence competitive binding assay, fluorescence intensity (SfurOBP3; ligand concentration 6): 71457 and 61006 and 51881
- Fluorescence competitive binding assay, fluorescence intensity (SfurOBP3; ligand concentration 8): 71819 and 64171 and 69972
- Fluorescence competitive binding assay, fluorescence intensity (SfurOBP3; ligand concentration 10): 63459 and 67080 and 84824
- Fluorescence competitive binding assay, fluorescence intensity (SfurOBP3; ligand concentration 12): 64327 and 73125 and 73637
- Fluorescence competitive binding assay, fluorescence intensity (SfurOBP3; ligand concentration 14): 85412 and 71741 and 71210
- Fluorescence competitive binding assay, fluorescence intensity (SfurOBP3; ligand concentration 16): 78313 and 80279 and 70309
- Fluorescence competitive binding assay, fluorescence intensity (SfurOBP3; ligand concentration 18): 77162 and 77902 and 55555
- Fluorescence competitive binding assay, fluorescence intensity (SfurOBP3; ligand concentration 20): 68113 and 75065 and 101895
- pIC50 (SfurOBP3; SfurOBP3, protein and 1-NPN both 2.0 µM, competitor 2-20 µM, read-out: IC50): < 4.70
- pIC50 (SfurOBP11; SfurOBP11, protein and 1-NPN both 2.0 µM, competitor 2-20 µM, read-out: IC50): 5.46
- Fluorescence intensity, fluorescence competitive binding assay, OBP11 (SfurOBP11; ligand concentration 2, replicate 1): 16266
- Fluorescence intensity, fluorescence competitive binding assay, OBP11 (SfurOBP11; ligand concentration 2, replicate 2): 15087
- Fluorescence intensity, fluorescence competitive binding assay, OBP11 (SfurOBP11; ligand concentration 2, replicate 3): 17001
- Fluorescence intensity, fluorescence competitive binding assay, OBP11 (SfurOBP11; ligand concentration 4, replicate 1): 17687
- Fluorescence intensity, fluorescence competitive binding assay, OBP11 (SfurOBP11; ligand concentration 4, replicate 2): 17526
- Fluorescence intensity, fluorescence competitive binding assay, OBP11 (SfurOBP11; ligand concentration 4, replicate 3): 17848
- Fluorescence intensity, fluorescence competitive binding assay, OBP11 (SfurOBP11; ligand concentration 6, replicate 1): 16356
- Fluorescence intensity, fluorescence competitive binding assay, OBP11 (SfurOBP11; ligand concentration 6, replicate 2): 18409
- Fluorescence intensity, fluorescence competitive binding assay, OBP11 (SfurOBP11; ligand concentration 6, replicate 3): 17383
- Fluorescence intensity, fluorescence competitive binding assay, OBP11 (SfurOBP11; ligand concentration 8, replicate 1): 17184
- Fluorescence intensity, fluorescence competitive binding assay, OBP11 (SfurOBP11; ligand concentration 8, replicate 2): 18342
- Fluorescence intensity, fluorescence competitive binding assay, OBP11 (SfurOBP11; ligand concentration 8, replicate 3): 18652
- Fluorescence intensity, fluorescence competitive binding assay, OBP11 (SfurOBP11; ligand concentration 10, replicate 1): 18889
- Fluorescence intensity, fluorescence competitive binding assay, OBP11 (SfurOBP11; ligand concentration 10, replicate 2): 17441
- Fluorescence intensity, fluorescence competitive binding assay, OBP11 (SfurOBP11; ligand concentration 10, replicate 3): 20338
- Fluorescence intensity, fluorescence competitive binding assay, OBP11 (SfurOBP11; ligand concentration 12, replicate 1): 19011
- Fluorescence intensity, fluorescence competitive binding assay, OBP11 (SfurOBP11; ligand concentration 12, replicate 2): 18892
- Fluorescence intensity, fluorescence competitive binding assay, OBP11 (SfurOBP11; ligand concentration 12, replicate 3): 20835
- Fluorescence intensity, fluorescence competitive binding assay, OBP11 (SfurOBP11; ligand concentration 14, replicate 1): 21007
- Fluorescence intensity, fluorescence competitive binding assay, OBP11 (SfurOBP11; ligand concentration 14, replicate 2): 21377
- Fluorescence intensity, fluorescence competitive binding assay, OBP11 (SfurOBP11; ligand concentration 14, replicate 3): 20817
- Fluorescence intensity, fluorescence competitive binding assay, OBP11 (SfurOBP11; ligand concentration 16, replicate 1): 23140
- Fluorescence intensity, fluorescence competitive binding assay, OBP11 (SfurOBP11; ligand concentration 16, replicate 2): 21703
- Fluorescence intensity, fluorescence competitive binding assay, OBP11 (SfurOBP11; ligand concentration 16, replicate 3): 22422
- Fluorescence intensity, fluorescence competitive binding assay, OBP11 (SfurOBP11; ligand concentration 18, replicate 1): 27356
- Fluorescence intensity, fluorescence competitive binding assay, OBP11 (SfurOBP11; ligand concentration 18, replicate 2): 26038
- Fluorescence intensity, fluorescence competitive binding assay, OBP11 (SfurOBP11; ligand concentration 18, replicate 3): 25306
- Fluorescence intensity, fluorescence competitive binding assay, OBP11 (SfurOBP11; ligand concentration 20, replicate 1): 26659
- Fluorescence intensity, fluorescence competitive binding assay, OBP11 (SfurOBP11; ligand concentration 20, replicate 2): 25183
- Fluorescence intensity, fluorescence competitive binding assay, OBP11 (SfurOBP11; ligand concentration 20, replicate 3): 25906
